For assay [1], the system named is MCF-7 human breast cancer cells. Put plainly: Cell Titer-Glo growth inhibition, MCF-7. Type of assay: cell-based.
Assay [2] relates to T-47D human breast cancer cells. Put plainly: Cell Titer-Glo growth inhibition, T-47D. The note with it: T47D. The class given is cell-based.
For assay [3], the system named is ZR-75-1 human breast cancer cells. The experiment in a line: Cell Titer-Glo growth inhibition, ZR-75-1. The class given is cell-based. (ATP-based viability assays read luminescence as a measure of living cells.)
Assay [4] concerns MDA-MB-134-VI human breast cancer cells. Put plainly: Cell Titer-Glo growth inhibition, MDA-MB-134VI. Type of assay: cell-based.
The subject of assay [5] is MDA-MB-175-VII human breast cancer cells. Put plainly: Cell Titer-Glo growth inhibition, MDA-MB-175VII. The class given is cell-based.
For assay [6], the system named is MDA-MB-415 human mammary gland/breast cancer cells. The experiment in a line: Cell Titer-Glo growth inhibition, MDA-MB-415. The class given is cell-based.
The subject of assay [7] is MDA-MB-231 human breast cancer cells. The experiment in a line: Cell Titer-Glo growth inhibition, MDA-MB-231. Type of assay: cell-based.
In assay [8] the test system is HCC70 human breast cancer cells. The experiment in a line: Cell Titer-Glo growth inhibition, HCC70. The class given is cell-based.
In assay [9] the test system is HCC1806 human breast cancer cells. Put plainly: Cell Titer-Glo growth inhibition, HCC1806. The class given is cell-based.
Assay [10] deals with BT-549 human breast cancer cells. Put plainly: Cell Titer-Glo growth inhibition, BT-549. The class given is cell-based.
For assay [11], the system named is Hs578t human breast cancer cells. Put plainly: Cell Titer-Glo growth inhibition, Hs578t. The class given is cell-based. The settings on record: Hs-578T.
Assay [12] has as its system MDA-MB-436 human adenocarcinoma derived cancer cells. Put plainly: Cell Titer-Glo growth inhibition, MDA-MB-436. The class given is cell-based.
In assay [13] the test system is panel of 12 human breast cancer cell lines. Put plainly: Cell Titer-Glo growth inhibition, statements for the whole panel.
Protocol: MCF-7 human breast cancer cells were cultured in RPMI 1640 medium supplemented with 10% fetal bovine serum (FBS), 2 mM glutamine, 10 mM 4-(2-hydroxyethyl)-1-piperazineethanesulfonic acid (HEPES), 0.075% sodium bicarbonate, 100 units/mL sodium penicillin G, 100 μg/mL streptomycin sulfate and 25 μg/mL gentamicin. T-47D human breast cancer cells were cultured in RPMI 1640 medium supplemented with 10% FBS, 4.5 g/L glucose, 2 mM glutamine, 10 mM HEPES, 0.2 units/mL Insulin, 1 mM sodium pyruvate, 100 units/mL sodium penicillin G, 100 μg/mL streptomycin sulfate and 25 μg/mL gentamicin. ZR-75-1 human breast cancer cells were cultured in RPMI 1640 medium supplemented with 10% FBS, 4.5 g/L glucose, 2 mM glutamine, 10 mM HEPES, 1 mM sodium pyruvate, 100 units/mL sodium penicillin G, 100 μg/mL streptomycin sulfate and 25 μg/mL gentamicin. MDA-MB-134-VI human breast cancer cells were cultured in Leibovitz's L-15 medium supplemented with 20% FBS, 2 mM glutamine, 100 units/mL sodium penicillin G, 100 μg/mL streptomycin sulfate and 25 μg/mL gentamicin. MDA-MB-175-VII human breast cancer cells were cultured in Leibovitz's L-15 medium supplemented with 10% FBS, 2 mM glutamine, 10 mM HEPES, 100 units/mL sodium penicillin G, 100 μg/mL streptomycin sulfate and 25 μg/mL gentamicin. […]
Assay [14] relates to OD-BRE-0745, an ER+, PR+, Her2− luminal B infiltrating ductal adenocarcinoma (patient-derived breast tumor). Put plainly: Antitumor activity in OD-BRE-0745 PDX model. The class given is in vivo, Swiss nude mice. The settings on record: 150 mg/kg palbociclib, contribution of eribulin masked (FIGS. 10 and 12). Here is the method:
A statistical test (analysis of variance) was performed to test for homogeneity between groups.

Where [15] appears, read: 72 h, read-out: Mean IC50, single agent Eribulin.

Each structure is given as a SMILES string. Where two headings read alike, the source gives them in different places. Where only a bound is given, the exact number is not on record here.

For the molecule `C=C1C[C@@H]2CC[C@@]34C[C@H]5O[C@H]6[C@@H](O3)[C@H]3O[C@H](CC[C@@H]3O[C@H]6[C@H]5O4)CC(=O)C[C@@H]3[C@@H](OC)[C@@H](C[C@H](O)CN)O[C@H]3C[C@H]3O[C@@H](CC[C@@H]1O2)C[C@@H](C)C3=C` [Eribulin], the half-maximal inhibitory concentration (IC50) (in general, the concentration needed to halve the response being measured) in [1] (MCF7, 72 h, read-out: Mean IC50, single agent Eribulin) is 0.253 nM; in [1] (MCF7, read-out: Mean IC50 of eribulin dose response with constant 1 μM Palbociclib), 0.598 nM; in assay [2] (setting [15]), 0.188 nM; in [3] (ZR-75-1, 72 h, read-out: Mean IC50, single agent Eribulin), greater than 1000 nM; in assay [4] (MDA-MB-134-VI, 72 h, read-out: Mean IC50, single agent Eribulin) it was 0.491 nM; in assay [4] (MDA-MB-134-VI, read-out: Mean IC50 of eribulin dose response with constant 1 μM Palbociclib), 21 nM. Moreover, the half-maximal inhibitory concentration (IC50) in assay [5] (Homo sapiens, MDA-MB-175-VII, 72 h, 72 h drug exposure, read-out: Mean IC50, single agent Eribulin) stood at 0.12 nM; in assay [5] (Homo sapiens, MDA-MB-175-VII, eribulin 3.8 pM to 1 μM, constant 10 μM palbociclib, read-out: Mean IC50 of eribulin dose response with constant 10 μM Palbociclib) it was 92.9 nM; in [5] (eribulin 3.8 pM to 1 μM, constant 10 μM palbociclib, listed as Eribufin, read-out: Mean IC50 of eribulin dose response with constant 10 μM Palbociclib), 92.2 nM; in assay [6] (MDA-MB-415, 72 h, read-out: Mean IC50, single agent Eribulin), 0.403 nM; in assay [7] (MDA-MB-231, 72 h, read-out: Mean IC50, single agent Eribulin), 0.149 nM; in [7] (MDA-MB-231, read-out: Mean IC50 of eribulin dose response with constant 1 μM Palbociclib), 1.45 nM. Further, the IC50 in [8] (HCC70, 72 h, read-out: Mean IC50, single agent Eribulin) amounted to 0.454 nM; in assay [8] (HCC70, read-out: Mean IC50 of eribulin dose response with constant 1 μM Palbociclib) it was 0.377 nM; in [8] (HCC70, read-out: Mean IC50 of eribulin dose response with constant 10 μM Palbociclib) it was 21.5 nM; in assay [9] (HCC1806, 72 h, read-out: Mean IC50, single agent Eribulin), 0.142 nM; in assay [9] (HCC1806, read-out: Mean IC50 of eribulin dose response with constant 1 μM Palbociclib) it was 0.273 nM; in [10] (BT-549, 72 h, read-out: Mean IC50, single agent Eribulin) it was 0.289 nM. Besides, the IC50 in [10] (BT-549, read-out: Mean IC50 of eribulin dose response with constant 1 μM Palbociclib) amounted to 0.374 nM; in assay [10] (BT-549, read-out: Mean IC50 of eribulin dose response with constant 10 μM Palbociclib) it was 0.849 nM; in assay [11] (setting [15]), 0.354 nM; in assay [11] (read-out: Mean IC50 of eribulin dose response with constant 1 μM Palbociclib), 14.6 nM; in assay [11] (read-out: Mean IC50 of eribulin dose response with constant 10 μM Palbociclib), 0.797 nM; in assay [12] (MDA-MB-436, 72 h, read-out: Mean IC50, single agent Eribulin), 0.86 nM. Also, the IC50 in [12] (MDA-MB-436, read-out: Mean IC50 of eribulin dose response with constant 1 μM Palbociclib) was 2.02 nM; in [12] (MDA-MB-436, read-out: Mean IC50 of eribulin dose response with constant 10 μM Palbociclib) it was 6.25 nM; in assay [13] (Homo sapiens, read-out: IC50, single agent, overall statement) it was less than 1 nM. Moreover, in [13] (all cell lines, constant dose of 10 μM or 1 μM of palbociclib), the “Potentiation of eribulin growth inhibition by palbociclib” value is on record as “No potentiation effect”.
`CC(=O)c1c(C)c2cnc(Nc3ccc(N4CCNCC4)cn3)nc2n(C2CCCC2)c1=O` [Palbociclib, 6-acetyl-8-cyclopentyl-5-methyl-2-[(5-piperazin-1-ylpyridin-2-yl)amino]pyrido[2,3-d]pyrimidin-7-one]: the IC50 was greater than 10000 nM in [1] (MCF7, MCF-7, 72 h drug exposure, read-out: Mean IC50, single agent Palbociclib); greater than 10000 nM in assay [2] (T-47D, 72 h drug exposure, read-out: Mean IC50, single agent Palbociclib); greater than 10000 nM in [3] (ZR-75-1, 72 h drug exposure, read-out: Mean IC50, single agent Palbociclib); 2440 nM in assay [4] (MDA-MB-134VI, 72 h drug exposure, read-out: Mean IC50, single agent Palbociclib); 1630 nM in assay [6] (MDA-MB-415, 72 h drug exposure, read-out: Mean IC50, single agent Palbociclib); 392 nM in assay [7] (MDA-MB-231, 72 h drug exposure, read-out: Mean IC50, single agent Palbociclib). The IC50 in [8] (HCC70, 72 h drug exposure, read-out: Mean IC50, single agent Palbociclib) is greater than 10000 nM; in assay [9] (HCC1806, 72 h drug exposure, read-out: Mean IC50, single agent Palbociclib), greater than 10000 nM; in [10] (BT-549, 72 h drug exposure, read-out: Mean IC50, single agent Palbociclib) it was greater than 10000 nM; in assay [11] (Hs578t, 72 h drug exposure, read-out: Mean IC50, single agent Palbociclib) it was greater than 10000 nM; in assay [12] (MDA-MB-436, 72 h drug exposure, read-out: Mean IC50, single agent Palbociclib), 2990 nM. For the same molecule, the “Tumor response at the higher amount of palbociclib” value in [14] was “overwhelmed the response”.

For the origin of these results see patent US20200129473A1, “USE OF ERIBULIN AND CYCLIN DEPENDENT KINASE INHIBITORS IN THE TREATMENT OF CANCER” (EISAI R&D MANAGEMENT CO., LTD., priority 2017, published 2020).
